The results in this text go back to US8535617B2, “Blood cell barrier for a lateral flow device” (Kimberly-Clark Worldwide, Inc., priority 2007, dated 2013).

In experiment [1] the test system is fresh human blood. In words: Blood separation on filter paper strips with a linoleic acid line, eluted with water. Particulars: Whatman filter paper strip. As for the experimental part: (§1) A circle of Whatman filter paper (Qualitative 18.5 cm) was cut into strips (16 cm×2 cm). A thin line of linoleic acid was placed 8 cm from the bottom end of the strip using a syringe with needle, to lay down a thin line of liquid (approximately 5-10 μl). Next, a drop (20 μl) of fresh human blood was placed onto the strip 4 cm up from the bottom. A control strip was prepared in a similar manner except no linoleic acid was placed on the control strip. The strips were then attached to a glass rod, being 6 cm away from each other, using scotch tape. In a manner similar to paper chromatography, the strips were placed into a tall beaker (2 liter volume) containing deionized water (50 ml) in such a manner that the bottom end of the paper strips just entered the water. The water wicked up the vertically hanging strips.
The system was allowed to run for another 20 minutes after which time the strips were taken out and allowed to air dry. Both strips were then sprayed with a ninhydrin spray to detect amino acids. […] The control had traces present along the length and a strong presence where the blood spot had stopped.

Experiment [2] has as its system fresh human blood. In words: Blood separation on nitrocellulose lateral flow membrane strips with a linoleic acid line. The protocol:
as §1
The experiment described in Example 1 was repeated but using nitrocellulose lateral flow membrane strips (Bangs Laboratories Inc., Fishers Ind.) in place of the paper strips. The same procedure was conducted and at the end of the flow period (20 minutes) the strips were allowed to dry. […] In contrast, the control strip allowed the blood to travel up the entire length of the strip. […]

On to `CCCCCC=CCC=CCCCCCCCC(=O)O` [linoleic acid, 9,12-octadecadienoic acid], for which the “movement of blood spot on strip” value in experiment [1] (20 μl blood, line of approximately 5-10 μl linoleic acid, eluted by deionized water) was “halt at the line where the linoleic acid had been placed”; in experiment [2] (nitrocellulose lateral flow membrane strip, flow period 20 minutes), “halted at the linoleic acid line”. Moreover, the “ninhydrin spray detection of amino acids” value in experiment [1] (after air drying, visual purple color) is reported as “presence of amino acids after the line”. The “phenolphthalin / 3% hydrogen peroxide spot test for dried blood and hemoglobin” value in experiment [2] (nitrocellulose strip, beyond the linoleic acid line, visual pink color) was “no pink color developed”.
